target: Human immunodeficiency virus type 1 protease (Human immunodeficiency virus 1, UniProt Q72874); assay: HIV Protease inhibitory activity

Compared with `CCCC1(c2ccccc2)CC(=O)C(C(CC)c2ccccc2)=C(O)O1` (centres undefined), `CCC(C1=C(O)OC(CC)(c2ccccc2)CC1=O)c1ccccc1` (centres undefined) is 1.7-fold higher in Ki: 95 nM for the first, 160 nM for the second. The first binds more tightly here.

`CCCC1(CCc2ccccc2)CC(=O)C(C(c2ccccc2)C2CC2)=C(O)O1` (centres undefined) and `CCCC1(CCc2ccccc2)CC(=O)C(C(c2ccccc2)C2CCCC2)=C(O)O1` (centres undefined) are within 1.5-fold of each other in Ki: 64 nM for the first, 59 nM for the second.

Going from `CCC(C1=C(O)OC(c2ccccc2)(C2CCCCC2)CC1=O)c1cccc(O)c1` (centres undefined) to `CCCC1(CCc2ccccc2)CC(=O)C(C(CC)c2ccccc2)=C(O)O1` (centres undefined), the Ki falls from 610 nM to 35 nM (17-fold).

Compared with `C=CC(C1=C(O)OC(CCC)(CCc2ccccc2)CC1=O)c1ccccc1` (centres undefined), `CCCC1(CCc2ccccc2)CC(=O)C(C(/C=C/c2ccccc2)c2ccccc2)=C(O)O1` (centres undefined) is 3.1-fold higher in Ki: 16 nM for the first, 50 nM for the second.

Compared with `CCCC1(CCC)CC(=O)C(C(c2ccccc2)C2CCCC2)=C(O)O1` (centres undefined), `CCCC1(CCC)CC(O)=C(C(c2ccccc2)C2CC2)C(=O)O1` (centres undefined) is 2.6-fold lower in Ki: 39 nM for the first, 15 nM for the second. The second binds more tightly here.

First: CCCC1(CCC)CC(=O)C(C(CC)c2ccccc2)=C(O)O1 (centres undefined)
Second: CCCC1(CCc2ccccc2)CC(=O)C(C(CCc2ccccc2)c2ccccc2)=C(O)O1 (centres undefined)
The Ki of the first is 1.5-fold lower: 22 nM for the first, 33 nM for the second.

Compared with `CCC(C1=C(O)OC2(CCCCCCC2)CC1=O)c1ccccc1` (centres undefined), `CCC(C1=C(O)OC2(CCCCC2)CC1=O)c1ccccc1` (centres undefined) is 3.8-fold lower in IC50: 3000 nM for the first, 780 nM for the second. The second is the more potent here.

`CCC(C1=C(O)OC2(CCC(=O)CC2)CC1=O)c1ccccc1` (centres undefined) and `C=CC(C1=C(O)OC2(CCCC2)CC1=O)c1ccccc1` (centres undefined) cannot be ordered by IC50: > 1000 nM for the first, 3000 nM for the second.

`CCC(C1=C(O)OC(CC(C)C)(CC(C)C)CC1=O)c1ccccc1` (centres undefined) and `CCCC1(CCC)CC(=O)C(C(c2ccccc2)C(C)(C)C)=C(O)O1` (centres undefined) cannot be ordered by IC50: 75000 nM for the first, > 1000 nM for the second.

`CCC(C1=C(O)OC(Cc2ccccc2)(Cc2ccccc2)CC1=O)c1ccccc1` (centres undefined) and `CCC(C1=C(O)OC(Cc2ccccc2)(c2ccccc2)CC1=O)c1ccccc1` (centres undefined) cannot be ordered by IC50: > 10000 nM for the first, > 10000 nM for the second.

`C=CC(C1=C(O)OC2(CCCCC2Cc2ccccc2)CC1=O)c1ccccc1` (centres undefined) and `C=CC(C1=C(O)OC2(CCCCCC2)CC1=O)c1ccccc1` (centres undefined) cannot be ordered by IC50: > 1000 nM for the first, > 1000 nM for the second.

First: C=CC(C1=C(O)OC2(CCOCC2)CC1=O)c1ccccc1 (centres undefined)
Second: CCCCC1(Cc2ccccc2)CC(=O)C(C(CC)c2ccccc2)=C(O)O1 (centres undefined)
The IC50 of the first is higher: > 10000 nM for the first, 3000 nM for the second. The second is the more potent here.

Reference: ChEMBL document CHEMBL1129402, “Structure-based design of HIV protease inhibitors: 5,6-dihydro-4-hydroxy-2-pyrones as effective, nonpeptidic inhibitors” (J Med Chem, 1996)
